Key:
[1] = system: spontaneous hypertensive rats (SH rats); test: Effect on blood pressure in spontaneous hypertensive rats after oral administration; assay type: in vivo
Description: This Example illustrates the effect of foroxymithine on blood pressure in spontaneous hypertensive rats (SH rate).
SH rats weighing 320 to 358 g were orally administered foroxymithine dihydrate as an aqueous solution at do- see of 12.5, 25 and 50 mg/kg. After the administration, blood pressure was measured at certain time intervals. Changes in blood pressure in the foroxymithine- administered group were compared with those in the control group orally administered distilled water only.

[2] = target: T1, angiotensin I converting enzyme (Bos taurus, UniProt P12820); test: Anti-angiotensin I converting enzyme activity (modified Hayakari method, hippuryl-L-histidyl-L-leucine substrate, absorbance at 382 nm); assay type: biochemical, bovine; settings: material from the purification steps of Examples 2 and 3; read-out: angiotensin I converting enzyme inhibitory activity (IC50) (converted)
T1 construct: obtained from a bovine lung and partially purified; from tissue; host or cells: bovine lung
T1 sequence (P12820 29-1306): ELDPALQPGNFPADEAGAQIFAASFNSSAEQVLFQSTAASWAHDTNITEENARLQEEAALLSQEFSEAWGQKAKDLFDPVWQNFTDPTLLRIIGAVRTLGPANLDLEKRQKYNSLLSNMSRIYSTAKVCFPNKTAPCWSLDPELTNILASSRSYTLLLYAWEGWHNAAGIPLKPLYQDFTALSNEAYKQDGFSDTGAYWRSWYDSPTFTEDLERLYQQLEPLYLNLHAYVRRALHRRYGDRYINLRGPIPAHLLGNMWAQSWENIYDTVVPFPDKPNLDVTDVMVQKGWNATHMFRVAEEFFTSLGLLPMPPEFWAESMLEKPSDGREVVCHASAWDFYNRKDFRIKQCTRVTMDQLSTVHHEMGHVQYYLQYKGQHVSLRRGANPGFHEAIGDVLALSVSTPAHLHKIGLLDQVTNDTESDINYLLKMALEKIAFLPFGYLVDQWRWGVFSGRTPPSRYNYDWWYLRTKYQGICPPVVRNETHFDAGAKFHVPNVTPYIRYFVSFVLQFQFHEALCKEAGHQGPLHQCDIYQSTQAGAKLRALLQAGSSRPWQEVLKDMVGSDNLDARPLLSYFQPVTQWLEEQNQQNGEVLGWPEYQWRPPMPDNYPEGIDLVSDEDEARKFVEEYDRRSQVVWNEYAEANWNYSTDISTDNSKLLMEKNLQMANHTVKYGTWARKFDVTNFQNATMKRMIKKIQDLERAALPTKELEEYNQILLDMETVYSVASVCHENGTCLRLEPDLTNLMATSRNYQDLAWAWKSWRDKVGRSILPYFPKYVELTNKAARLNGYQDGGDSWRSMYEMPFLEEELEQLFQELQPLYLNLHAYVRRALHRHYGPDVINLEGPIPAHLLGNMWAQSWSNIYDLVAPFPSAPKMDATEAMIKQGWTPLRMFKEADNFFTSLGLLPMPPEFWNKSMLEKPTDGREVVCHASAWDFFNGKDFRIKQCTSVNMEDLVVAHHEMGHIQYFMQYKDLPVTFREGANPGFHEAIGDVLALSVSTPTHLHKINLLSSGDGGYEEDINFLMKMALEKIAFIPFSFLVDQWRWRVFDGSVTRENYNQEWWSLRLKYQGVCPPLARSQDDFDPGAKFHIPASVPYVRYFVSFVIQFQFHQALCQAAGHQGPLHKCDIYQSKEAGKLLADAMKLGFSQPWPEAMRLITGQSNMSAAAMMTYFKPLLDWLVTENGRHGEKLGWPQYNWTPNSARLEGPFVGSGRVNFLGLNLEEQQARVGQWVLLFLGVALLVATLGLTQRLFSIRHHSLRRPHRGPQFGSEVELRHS
Description: Follow-up of foroxymithine during the cultivation step and the purification step was performed in accordance with the determination of anti-angiotensin I converting enzyme activity by the method to be described below.
Anti-angiotensin I converting enzyme activity was determined by a modification of the angiotensin I converting enzyme determination technique described in M. Hayakari et al., Analytical Biochemistry Vol. 84, pages 361-369 (1978). Hippuryl-L-histidyl-L-leucine as a substrate was dissolved at a concentration of 5 mg/ml in Tris-hydrochloride buffer (0.5M, pH 8.0) containing 0.3M sodium chloride. 0.40 ml of a solution containing a test material was added to 0.05 ml of the resulting solution. The mixture was heated at 37'C for 3 minutes. Then, 0.05 ml of a solution containing angiotensin I converting enzyme that had been obtained from a bovine lung and partially purified was added, and the mixture was reacted for 30 minutes at 37.C. […] After the system was allowed to stand for 15 minutes at room temperature, its absorbance (termed absorbance (a)) at 382 nm was measure. […] The reaction system as the control was measured for absorbance, which was termed absorbance (b). The angiotensin I converting enzyme inhibition rate (%) was calculated from the equation (b-a)/b x 100. […]

[3] = system: mice; test: Acute toxicity studies in mice; assay type: in vivo; settings: 800 mg/kg i.v.
Excerpt: Foroxymithine is therefore a low-toxicity substance.

[4] = oral dose 12.5 mg/kg, 1 hour after administration
[5] = oral dose 12.5 mg/kg, 3 hours after administration
[6] = oral dose 12.5 mg/kg, 6 hours after administration
[7] = oral dose 12.5 mg/kg, 24 hours after administration
[8] = oral dose 50.0 mg/kg, 1 hour after administration
[9] = oral dose 50.0 mg/kg, 3 hours after administration
[10] = oral dose 50.0 mg/kg, 6 hours after administration
[11] = oral dose 50.0 mg/kg, 24 hours after administration

SMILES: CC(=O)NC(CCCN(O)C=O)C(=O)NC(CO)C(=O)N(O)CCCC1NC(=O)C(CCCN(O)C=O)NC1=O (stereo not drawn) [Foroxymithine dihydrate, foroxymithine]
- Mean blood pressure ± S.D. [1, 4]: 180 ± 0.7 mmHg
- decrease in blood pressure [1, 4]: 14.3%
- Mean blood pressure ± S.D. [1, 5]: 190 ± 28.2 mmHg
- decrease in blood pressure [1, 5]: 9.5%
- Mean blood pressure ± S.D. [1, 6]: 200 ± 14.1 mmHg
- decrease in blood pressure [1, 6]: 4.8%
- Mean blood pressure ± S.D. [1, 7]: 210 ± 14.1 mmHg
- decrease in blood pressure [1, 7]: 0%
- Mean blood pressure ± S.D. ([1]; oral dose 12.5 mg/kg, before administration): 210 ± 0.7 mmHg
- Mean blood pressure ± S.D. [1, 8]: 160 ± 7.0 mmHg
- decrease in blood pressure [1, 8]: 23.8%
- Mean blood pressure ± S.D. [1, 9]: 153 ± 3.5 mmHg
- decrease in blood pressure [1, 9]: 27.1%
- Mean blood pressure ± S.D. [1, 10]: 193 ± 10.6 mmHg
- decrease in blood pressure [1, 10]: 8.1%
- Mean blood pressure ± S.D. [1, 11]: 213 ± 3.5 mmHg
- decrease in blood pressure [1, 11]: -1.4%
- Mean blood pressure ± S.D. ([1]; oral dose 50.0 mg/kg, before administration): 210 ± 0.0 mmHg
- effect on blood pressure ([1]; spontaneous hypertensive rats (SH rats), oral, conclusion in words): lower blood pressure
- IC50 [2]: 12.2 µM
- deaths (acute toxicity) [3]: no deaths

— patent EP0162422A2, “The novel physiologically active substance foroxymithine, a process and microorganisms for its production and its use as medicament” (MICROBIAL CHEMISTRY RESEARCH FOUNDATION, priority 1984, dated 1985)
